Toxic doses and inconclusive results are not listed. How the source made its calls: active means survival T/C of 150% or more; inactive means T/C below 125% in these data.
Test system: P388 leukemia ip, CD2F1 mice, survival T/C
Test: NCI In Vivo Anticancer Drug Screen. Data for tumor model P388 Leukemia (intraperitoneal) in CD2F1 (CDF1) mice
Settings: endpoint: median survival time, schedule: Q01DX009 (ip), higher = longer survival
Summary of the method: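 Mice carrying the transplanted tumor received test compound or vehicle. Survival was recorded in each group, and the value is the treated-group measurement divided by that of the vehicle-treated control group.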

Measured: T/C

CCCC(C)(C)c1cc(C(C)C)cc(C(C)(C)CCC)c1O
inactive: dose: 12.5 mg/kg/injection, vehicle: other 100 % of control | dose: 25.0 mg/kg/injection, vehicle: other 100 % of control | dose: 25.0 mg/kg/injection, vehicle: saline + Tween-80 + alcohol 103 % of control | dose: 50.0 mg/kg/injection, vehicle: other 106 % of control | dose: 50.0 mg/kg/injection, vehicle: saline + Tween-80 + alcohol 101 % of control | dose: 100.0 mg/kg/injection, vehicle: other 112 % of control | dose: 100.0 mg/kg/injection, vehicle: saline + Tween-80 + alcohol 100 % of control | dose: 200.0 mg/kg/injection, vehicle: saline + Tween-80 + alcohol 113 % of control

CCCCCCCCCCCC#CC(=O)OC
inactive: dose: 50.0 mg/kg/injection, vehicle: saline 105 % of control | dose: 100.0 mg/kg/injection, vehicle: saline 103 % of control | dose: 200.0 mg/kg/injection, vehicle: saline 103 % of control

Source: PubChem BioAssay AID330 (DTP/NCI, 2004)
